Where “and” joins values, the source holds several entries; their conditions need not be identical. Equal values may be shown once. Calls of active or inactive are those of the source. No cut-off for these calls is given here.
Tests used:
Mus musculus [1] = experiment: Anticonvulsant activity in Kunming mouse assessed as reduction in Sc3-MP-induced tonic seizure rate at 300 mg/kg, ip administered 0.5 hrs before Sc3-MP stimulation relative to control; type: functional; parameters: scale not given: the % may be the effect or the level left
Homo sapiens [2] = organism: Homo sapiens; experiment: Inhibition of human LDH1 at 0.5 mM using sodium pyruvate as substrate measured for 60 sec for every 5 mins by LC/MS-MS analysis
Mus musculus [3] = experiment: Anticonvulsant activity in Kunming mouse assessed as reduction in ScPTZ-induced clonic seizure at 300 mg/kg, ip administered 0.5 hrs before ScPTZ stimulation relative to control; type: functional; parameters: scale not given: the % may be the effect or the level left
Mus musculus [4] = experiment: Anticonvulsant activity in Kunming mouse assessed as reduction in ScPTZ-induced tonic seizure rate at 300 mg/kg, ip administered 0.5 hrs before ScPTZ stimulation relative to control; type: functional; parameters: scale not given: the % may be the effect or the level left
Mus musculus [5] = experiment: Anticonvulsant activity in Kunming mouse assessed as MES-induced hind limb extension at 50 mg/kg, ip administered 0.5 to 4 hrs before MES stimulation relative to control; type: functional
Mus musculus [6] = experiment: Anticonvulsant activity in Kunming mouse assessed as MES-induced hind limb extension at 100 mg/kg, ip administered 3 hrs before MES stimulation; type: functional, organism-based
Mus musculus [7] = experiment: Anticonvulsant activity in Kunming mouse assessed as reduction in ScPTZ-induced seizure at 300 mg/kg, ip administered 0.25 to 2 hrs before ScPTZ stimulation relative to control; type: functional; parameters: scale not given: the % may be the effect or the level left
Mus musculus [8] = experiment: Anticonvulsant activity in ip dosed Kunming mouse assessed as reduction in ScPTZ-induced seizure administered 0.5 hrs before ScPTZ stimulation; type: functional
[9] = (§1) Protective index, ratio of TD50 for neurotoxicity against ip dosed Kunming mouse assessed as time remained in rod measured at 0.5 hrs by rotarod test to ED50 for anticonvulsant activity in ip dosed Kunming mouse assessed as reduction in Sc3-MP-induced seizure administered 0.5 hrs before Sc3-MP stimulation; type: toxicity, organism-based; conditions: in vivo, read-out: PI
[10] = as §1, with “ScPTZ-induced” for “Sc3-MP-induced”, “ScPTZ” for “Sc3-MP”; type: toxicity, organism-based; conditions: in vivo, read-out: PI
Mus musculus [11] = experiment: […] activity in ip dosed Kunming mouse assessed as reduction in formalin-induced paw licking administered 0.5 hrs before formalin stimulation; type: functional
Mus musculus [12] = experiment: Anticonvulsant activity in Kunming mouse assessed as MES-induced hind limb extension at 100 mg/kg, ip administered 0. 5 to 4 hrs before MES stimulation relative to control; type: functional
Homo sapiens [13] = organism: Homo sapiens; experiment: Inhibition of human LDH1 at 0.5 mM using sodium pyruvate as substrate by UV-VIS spectrophotometry method relative to control
[14] = as §1, with “formalin-induced paw licking” for “Sc3-MP-induced seizure”, “formalin” for “Sc3-MP”; type: toxicity, organism-based; conditions: in vivo, read-out: PI
Mus musculus [15] = experiment: Anticonvulsant activity in ip dosed Kunming mouse assessed as MES-induced hind limb extension administered 0.5 hrs before MES stimulation; type: functional
Homo sapiens [16] = organism: Homo sapiens; experiment: Inhibition of human LDH5 at 0.5 mM using sodium pyruvate as substrate by UV-VIS spectrophotometry method relative to control
[17] = Protective index, ratio of TD50 for neurotoxicity against ip dosed Kunming mouse assessed as time remained in rod measured at 0.5 hrs by rotarod test to ED50 for anticonvulsant activity in ip dosed Kunming mouse assessed as MES-induced hind limb extension administered 0.5 hrs; type: toxicity, organism-based; conditions: in vivo, read-out: PI
Mus musculus [18] = experiment: Anticonvulsant activity in Kunming mouse assessed as reduction in ScPTZ-induced seizure at 100 mg/kg, ip administered 0.25 and 1 hrs before ScPTZ stimulation relative to control; type: functional; parameters: scale not given: the % may be the effect or the level left
Mus musculus [19] = experiment: Anticonvulsant activity in Kunming mouse assessed as MES-induced hind limb extension at 50 mg/kg, ip administered 0.5 and 2 hrs before MES stimulation relative to control; type: functional
Mus musculus [20] = experiment: Anticonvulsant activity in Kunming mouse assessed as reduction in Sc3-MP-induced seizure at 300 mg/kg, ip administered 0.5 hrs before Sc3-MP stimulation relative to control; type: functional; parameters: scale not given: the % may be the effect or the level left
Mus musculus [21] = experiment: Anticonvulsant activity in Kunming mouse assessed as reduction in Sc3-MP-induced seizure ip dosed measured at 0.5 hrs before Sc3-MP stimulation; type: functional
Mus musculus [22] = experiment: Anticonvulsant activity in Kunming mouse assessed as reduction in Sc3-MP-induced seizure at 300 mg/kg, ip administered 0.25 and 1 hrs before Sc3-MP stimulation relative to control; type: functional, organism-based
Mus musculus [23] = experiment: Anticonvulsant activity in Kunming mouse assessed as reduction in ScPTZ-induced seizure at 100 mg/kg, ip administered 0.25 to 2 hrs before ScPTZ stimulation relative to control; type: functional
Mus musculus [24] = experiment: Anticonvulsant activity in Kunming mouse assessed as reduction in Sc3-MP-induced clonic seizure rate at 300 mg/kg, ip administered 0.5 hrs before Sc3-MP stimulation relative to control; type: functional; parameters: scale not given: the % may be the effect or the level left
Mus musculus [25] = experiment: Anticonvulsant activity in Kunming mouse assessed as MES-induced hind limb extension at 100 mg/kg, ip administered 0. 5 hrs before MES stimulation relative to control; type: functional
[26] = Noncompetitive inhibition of human LDH5 at 0.5 mM using sodium pyruvate as substrate by UV-VIS spectrophotometry method based Lineweaver-Burk plot analysis
Mus musculus [27] = experiment: Anticonvulsant activity in Kunming mouse assessed as reduction in ScPTZ-induced tonic seizure rate at 100 mg/kg, ip administered 0.5 hrs before ScPTZ stimulation relative to control; type: functional; parameters: scale not given: the % may be the effect or the level left
Mus musculus [28] = experiment: Anticonvulsant activity in Kunming mouse assessed as reduction in ScPTZ-induced clonic seizure at 100 mg/kg, ip administered 0.5 hrs before ScPTZ stimulation relative to control; type: functional; parameters: scale not given: the % may be the effect or the level left
Mus musculus [29] = experiment: Anticonvulsant activity in Kunming mouse assessed as MES-induced hind limb extension at 100 mg/kg, ip administered 0. 5 to 2 hrs before MES stimulation; type: functional, organism-based
[30] = Noncompetitive inhibition of human LDH1 at 0.5 mM using sodium pyruvate as substrate by UV-VIS spectrophotometry method based Lineweaver-Burk plot analysis
[31] = Neurotoxicity against Kunming mouse assessed as time remained in rod at 100 mg/kg, ip administered 0.5 to 2 hrs by rotarod test; type: toxicity, organism-based; conditions: in vivo
[32] = Neurotoxicity against ip dosed Kunming mouse assessed as time remained in rod measured at 0.5 hrs by rotarod test; type: toxicity, organism-based; conditions: in vivo
Homo sapiens [33] = organism: Homo sapiens; experiment: Inhibition of human LDH5 at 0.5 mM using sodium pyruvate as substrate measured for 60 sec for every 5 mins by LC/MS-MS analysis
Mus musculus [34] = experiment: Anticonvulsant activity in Kunming mouse assessed as reduction in ScPTZ-induced seizure at 100 mg/kg, ip administered 1 hr relative to control; type: functional; parameters: scale not given: the % may be the effect or the level left
Mus musculus [35] = experiment: Anticonvulsant activity in Kunming mouse assessed as reduction in ScPTZ-induced seizure at 100 mg/kg, ip administered 0.5 hrs before ScPTZ stimulation relative to control; type: functional; parameters: scale not given: the % may be the effect or the level left
Mus musculus [36] = experiment: Anticonvulsant activity in Kunming mouse assessed as reduction in Sc3-MP-induced mortality rate at 300 mg/kg, ip administered 0.5 hrs before Sc3-MP stimulation relative to control; type: functional; parameters: scale not given: the % may be the effect or the level left
Mus musculus [37] = experiment: Anticonvulsant activity in Kunming mouse assessed as MES-induced hind limb extension at 100 mg/kg, ip administered 4 hrs before MES stimulation; type: functional, organism-based
Mus musculus [38] = experiment: Anticonvulsant activity in Kunming mouse assessed as reduction in ScPTZ-induced mortality rate at 300 mg/kg, ip administered 0.5 hrs before ScPTZ stimulation relative to control; type: functional; parameters: scale not given: the % may be the effect or the level left

SMILES	Activity (Mus musculus [1])	Activity (Mus musculus [3])	Activity (Mus musculus [4])	Activity (Mus musculus [5])	Activity (Mus musculus [7])	ED50 (Mus musculus [8])	selectivity ratio at 0.5 h [9]	selectivity ratio at 0.5 h [10]	ED50 (Mus musculus [11])	Activity (Mus musculus [12])	inhibition (Homo sapiens [13])	selectivity ratio at 0.5 h [14]	ED50 (Mus musculus [15])	inhibition (Homo sapiens [16])	selectivity ratio at 0.5 h [17]	Activity (Mus musculus [19])	ED50 (Mus musculus [21])	Activity (Mus musculus [23])	Activity (Mus musculus [24])	Activity (Mus musculus [27])	other results
COc1cc(OC)c(OC)cc1/C=C/COC(=O)/C=C/c1cc(OC)c(OC)c(OC)c1	75%	100%	25%	50%	50%	204 mg/kg and 458 µmol/kg	3.3	4.9	85.5 mg/kg and 192 µmol/kg	25 - 100%	10%	11.6	74.7 µmol/kg and 33.2 mg/kg	13%	29.8	75%	> 200 mg/kg and > 450 µmol/kg	inactive	100%	100%	inhibition (Homo sapiens [2]): 10%; Activity (Mus musculus [6]): Active; Activity (Mus musculus [18]): 75%; Activity (Mus musculus [20]): 50%; Activity (Mus musculus [22]): Active; Activity (Mus musculus [25]): 100%; Ki [26]: 3.35 µM; Activity (Mus musculus [28]): 100%; Activity (Mus musculus [29]): Active; Ki [30]: 14.1 µM; Activity [31]: Non-Toxic; TD50 at 0.5 h [32]: 2220 µmol/kg and 988 mg/kg; inhibition (Homo sapiens [33]): 13%
COc1cc(OC)c(OC)cc1/C=C/COC(=O)/C=C/c1ccc(OC)c(OC)c1	75%	100%	0%	50%	50%	173 mg/kg and 418 µmol/kg	3.3	> 5.8	93.3 mg/kg and 225 µmol/kg	25 - 100%	Active	> 10.7	58.1 mg/kg and 140 µmol/kg	Active	> 17.2	50%	> 300 mg/kg and > 724 µmol/kg	inactive	100%	100%	Activity (Mus musculus [34]): 75%; Activity (Mus musculus [35]): 100%; Activity (Mus musculus [36]): 25%; Activity (Mus musculus [28]): 100%; Activity (Mus musculus [29]): Active; Activity [31]: Non-Toxic; TD50 at 0.5 h [32]: > 1000 mg/kg and > 2410 µmol/kg
COc1cc(OC)c(OC)cc1/C=C/COC(=O)/C=C/c1ccc(F)cc1	75%	100%	0%	50%	50%	167 mg/kg and 449 µmol/kg	5	> 5.9	43.4 mg/kg and 116 µmol/kg	25 - 100%	< 5%	23	92.9 µmol/kg and 34.6 mg/kg	< 9%	> 28.9	75%	> 300 mg/kg and > 806 µmol/kg	inactive	100%	100%	inhibition (Homo sapiens [2]): 5%; Activity (Mus musculus [6]): Active; Activity (Mus musculus [34]): 75%; Activity (Mus musculus [35]): 100%; Activity (Mus musculus [25]): 100%; Activity (Mus musculus [28]): 100%; Activity (Mus musculus [29]): Active; Activity [31]: Non-Toxic; TD50 at 0.5 h [32]: > 2690 µmol/kg and > 1000 mg/kg; Activity (Mus musculus [37]): Active; inhibition (Homo sapiens [33]): 5%
COc1ccccc1/C=C/C(=O)OC/C=C/c1cc(OC)c(OC)cc1OC	100%	100%	50%	50%	50%	240 mg/kg and 625 µmol/kg	3.3	> 4.2	113 mg/kg and 294 µmol/kg	25 - 100%	inactive	> 8.9	39 mg/kg and 101 µmol/kg	inactive	> 25.6	75%	> 300 mg/kg and 780 µmol/kg	inactive	100%	100%	inhibition (Homo sapiens [2]): 2%; Activity (Mus musculus [38]): 25%; Activity (Mus musculus [25]): 100%; Activity (Mus musculus [28]): 100%; Activity (Mus musculus [29]): Active; Activity [31]: Non-Toxic; TD50 at 0.5 h [32]: > 1000 mg/kg and 2600 µmol/kg; Activity (Mus musculus [37]): Active; inhibition (Homo sapiens [33]): 2%
